# Legend:
# [1] = use on comestible substances, consumption by humans or other animals; cited from earlier work
# d'Anjou pears [2] = test: Soluble sugars (% Brix) of d'Anjou pears treated on trees before harvest, after commercial controlled atmosphere storage; format: in vivo, d'Anjou pear (Pyrus communis); settings: application before harvest, after CA storage (FIGS. 2 and 3)
# Protocol: FIG. 2. Percent Brix of Bluestim™-treated pears after CA storage. Percent Brix were measured for all pear treatments after they were removed from the commercial CA storage conditions. FIG. 3. Fruit pressure of Bluestim™ (glycine betaine)-treated and untreated d'Anjou pears. D'Anjou pears were treated on trees with Bluestim™ concentrations of 0 and 7.5 lbs/acre before harvest. Pears were harvested during the fall and stored in commercial controlled atmosphere (CA) facilities. Pears were removed from storage approximately 3 months later. Fruit firmness and % Brix were measured approximately 1 month after removal from storage. In one embodiment, the methods of the invention are carried out before a fruit is “ripe”, i.e. before the fruit has a soluble solids content or “SSC” (which generally corresponds to sugar content) that is generally recognized in the art as suitable for a fruit of interest. […] Percent sugar content is typically measured, for example, in degrees Brix (symbol °Bx) which is the sugar content of an aqueous solution. […] Those of skill in the art will recognize that typical Brix values for fruit and vegetables to which glycine betaine is applied as described herein will vary widely depending on the type of fruit or vegetable, and will be able to readily able to determine suitable values. […]
# d'Anjou pears [3] = test: Fruit firmness (pressure) of d'Anjou pears treated on trees before harvest, after commercial controlled atmosphere storage; format: in vivo, d'Anjou pear (Pyrus communis)
# Protocol: FIG. 1. Fruit pressure of Bluestim™ (glycine betaine)-treated and untreated d'Anjou pears. D'Anjou pears were treated on trees with Bluestim™ concentrations of 0, 2.5, 5, and 10 lbs/acre on Aug. 17, 2010. Pears were harvested on 9/20/2010 and stored in commercial controlled atmosphere (CA) facilities. Pears were removed from storage on Jan. 7, 2011.
# FIG. 3. Fruit pressure of Bluestim™ (glycine betaine)-treated and untreated d'Anjou pears. D'Anjou pears were treated on trees with Bluestim™ concentrations of 0 and 7.5 lbs/acre before harvest. Pears were harvested during the fall and stored in commercial controlled atmosphere (CA) facilities. Pears were removed from storage approximately 3 months later. Fruit firmness and % Brix were measured approximately 1 month after removal from storage.
# In addition, the degree of firmness and/or lack thereof may be used as an indicator of ripeness. Fruit firmness is generally measured as kg/cm^−2 and suitable ranges of firmness values for unripened and ripe fruit and vegetables are well-known to those of skill in the art. Firmness may be measured using a variety of instruments such as various fruit firmness testers, force gauges, etc.
smiles,measurement,setting,value
"C[N+](C)(C)CC(=O)O [glycine betaine, N,N,N-trimethylglycine]",toxicity,[1],non-toxic
same,soluble sugars measured in % BRIX,d'Anjou pears [2],decrease in soluble sugars measured in % BRIX in a dose dependent manner
same,fruit firmness compared to untreated pears,"d'Anjou pears [3]; application before harvest, 2.5, 5, 10 or 7.5 lbs/acre, same post-harvest storage conditions (FIGS. 1 and 3)",firmer pears compared to untreated pears
same,"fruit firmness, dose dependence","d'Anjou pears [3]; application before harvest, 10 lbs/acre is the highest dose","increased the fruit firmness in a dose dependent manner, with applications of 10 lbs/acre yielding the firmest pears"
same,reversibility of the effect on firmness and % BRIX as time passes,d'Anjou pears [3]; treated pears as time passes after treatment,"soften and exhibit increases in % BRIX, indicating that the effect is temporary"

# From patent US20130203598A1, “USE OF PHOTOSYNTHETIC PIGMENT STABILIZING AGENTS TO REGULATE RIPENING AND QUALITY IN FRUITS AND VEGETABLES” (WASHINGTON STATE UNIVERSITY, priority 2011, published 2013)
